Assay results from PubChem BioAssay (NCI).
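Exposure lasted 48 hours, with cells grown in 96-well plates and compounds tested at five concentrations. GI50 marks 50% less growth. Definition used: TGI = concentration required for complete inhibition of growth.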 Where a SMILES comes first, the peptide text is derived from it. The star is where a group is joined. Trt = c1ccc(C(c2ccccc2)(c2ccccc2)*)cc1; Cbz = O=C(OCc1ccccc1)*

Tested on: K-562 leukemia
Experiment: DTP human tumour cell line panel, 48 h

`CC(=O)OC(=O)O/C=C\CCl` and `NNC(=O)C(O)C(O)C(=O)NN` (stereo unspecified) cannot be ordered by TGI: over 100 µM for the first, over 100 µM for the second.

`CC(=O)c1c2c(cc3c1CC1(C3)Cc3cc4c(c(C(=O)O)c3C1)CCC4)CCC2` (stereo unspecified) and `CCCN1CCC=C(c2ccc(Nc3nc(Nc4ccccc4C(N)=O)c4cc[nH]c4n3)c(C)c2)C1` cannot be ordered by TGI: 97.8 µM for the first, over 22.8 µM for the second.

`Cc1ccc(/C=N/NS(=O)(=O)c2ccccc2)c(C)c1` and `Cc1noc(/N=C2\C=C(Nc3onc(C)c3C)C(=O)c3ccccc32)c1C` cannot be ordered by TGI: over 100 µM for the first, over 100 µM for the second.

Molecule `C#CCOCn1cnc2ncnc(N)c21` has a TGI of over 100 µM.

In the case of `CCCN1CCC=C(c2ccc(Nc3nc(Nc4ccccc4C(N)=O)c4cc[nH]c4n3)c(C)c2)C1`, the GI50 is reported as 4.42 µM.

Tested on: MCF7 breast
Experiment: DTP human tumour cell line panel, 48 h

First: CC1=C(N2CC2)C(=O)c2ccccc2C1=O
Second: Cc1cc(Br)cc(C)c1NC(=O)C(=O)Nn1c(=S)[nH]c2ccccc2c1=O
The TGI of the first is lower: 1.82 µM for the first, over 100 µM for the second.

First: COc1cc(/C=N/NC(=O)c2ccccc2Nc2cccc(C(F)(F)F)c2)cc(OC)c1OC
Second: CCCN1CCC=C(c2ccc(Nc3nc(Nc4ccccc4C(N)=O)c4cc[nH]c4n3)c(C)c2)C1
The TGI of the first is lower: 6.86 µM for the first, over 25 µM for the second.

Going from `COc1cc2c(cc1OCCCOc1ccc(-c3nc4ccc(N5CCN(C)CC5)cc4[nH]3)cc1)N=C[C@@H]1CCCN1C2=O` to `COc1ccc(-c2nc(C(=O)c3ccccc3)n(CC(=O)c3ccc(Cl)cc3)c2-c2ccc(OC)cc2)cc1`, the TGI rises from 5.12 µM to over 100 µM.

First: CNC(c1ccncc1)C(NC)c1ccncc1 (stereo unspecified)
Second: COC(=O)C(CSC(c1ccccc1)(c1ccccc1)c1ccccc1)NC(=O)C(CC(N)=O)NC(=O)OCc1ccccc1 (stereo not drawn) (Cbz-Asn-Cys(Trt)-OMe; configuration not given here)
The TGI of the first is higher: over 100 µM for the first, 27.4 µM for the second.

Compared with `COc1cccc2c1cc1c3c(cc4c(c32)OCO4)C(=O)N1`, `CCCOC(=O)C1C2CCC(O2)C1C(=O)O` (stereo unspecified) is higher in TGI: 11.1 µM for the first, over 100 µM for the second.

Going from `CCCCCCCCCCSC(=N)N` to `NNC(=O)C(O)C(O)C(=O)NN` (stereo unspecified), the TGI rises from 6.03 µM to over 100 µM.

Going from `COc1cc(/C=N/NC(=O)c2ccccc2Nc2cccc(C(F)(F)F)c2)cc(OC)c1OC` to `CCCN1CCC=C(c2ccc(Nc3nc(Nc4ccccc4C(N)=O)c4cc[nH]c4n3)c(C)c2)C1`, the GI50 falls from 1.57 µM to 0.289 µM (5.4-fold).

Compared with `COc1cc2c(cc1OCCCOc1ccc(-c3nc4ccc(N5CCN(C)CC5)cc4[nH]3)cc1)N=C[C@@H]1CCCN1C2=O`, `COc1ccc(-c2nc(C(=O)c3ccccc3)n(CC(=O)c3ccc(Cl)cc3)c2-c2ccc(OC)cc2)cc1` is higher in GI50: under 0.01 µM for the first, over 100 µM for the second.

Compared with `COC(=O)C(CSC(c1ccccc1)(c1ccccc1)c1ccccc1)NC(=O)C(CC(N)=O)NC(=O)OCc1ccccc1` (stereo not drawn) (Cbz-Asn-Cys(Trt)-OMe; configuration not given here), `COc1cccc2c1cc1c3c(cc4c(c32)OCO4)C(=O)N1` is 1.5-fold lower in GI50: 4.54 µM for the first, 2.96 µM for the second.

`CCCCCCCCCCSC(=N)N` was tested, and the GI50 was 2.19 µM.

Tested on: NCI-H460 lung
Experiment: DTP human tumour cell line panel, 48 h

Compared with `CC1=C(N2CC2)C(=O)c2ccccc2C1=O`, H-QIYKKYRTWYRKAWKVLGKV-NH2 is 5.2-fold higher in TGI: 2.39 µM for the first, 12.4 µM for the second.

First: O=S1(=O)c2ccccc2N=C(c2ccccc2Cl)CC1c1ccc(F)cc1 (stereo unspecified)
Second: CC1=CC(=O)NP(=O)(C23CC4CC(CC(C4)C2)C3)N1 (stereo unspecified)
The TGI of the first is lower: 34.6 µM for the first, over 100 µM for the second.

Going from `COc1cc(/C=N/NC(=O)c2ccccc2Nc2cccc(C(F)(F)F)c2)cc(OC)c1OC` to `O=c1[nH]cc(C(F)(C(F)(F)F)C(F)(F)F)c(=O)[nH]1`, the TGI rises from 6.33 µM to over 100 µM.

`COc1ccc2c(c1)c1c3n2CCNN=C3CCC1` and `CC(=O)[C-](C(C)=O)c1ccccc1.CC(=O)[C-](C(C)=O)c1ccccc1.CC(=O)[C-](C(C)=O)c1ccccc1.[Cl-].[Zr+4]` cannot be ordered by TGI: over 100 µM for the first, over 100 µM for the second.

First: CC(C)N1C(C)[C@@H](c2ccccc2)O[P@]1(=O)CC1=CCCCC1 (stereo partly specified)
Second: CN=C(N)N/N=C(\C)c1ccc2c(c1)Cc1ccccc1-2
The TGI of the first is higher: over 100 µM for the first, 1.81 µM for the second.

First: COc1ccc(NC(=O)C2C(=O)N(c3ccc(OC)cc3)C(=O)/C2=N\NC(N)=O)cc1 (stereo unspecified)
Second: C/C(=N\NS(=O)(=O)c1ccc([N+](=O)[O-])cc1)c1ccc[n+]([O-])n1
The TGI of the first is higher: over 100 µM for the first, 2.75 µM for the second.

First: CC(C)(C)Sc1nnc(SC(C)(C)C)c2c(=O)[nH]nc(SC(C)(C)C)c12
Second: COc1cc2c(cc1OCCCOc1ccc(-c3nc4ccc(N5CCN(C)CC5)cc4[nH]3)cc1)N=C[C@@H]1CCCN1C2=O
The TGI of the first is higher: 19.5 µM for the first, under 0.0505 µM for the second.

`CCCCNC1=C(C(=O)OCC)/C(=N/NC(=O)c2ccccc2O)CO1` and `N#CC(C(=O)CCCC(=O)Nc1ccc(Cl)cc1Cl)c1ccc(Cl)cc1` (stereo unspecified) cannot be ordered by TGI: over 100 µM for the first, over 100 µM for the second.

`COC(=O)/C(=N\Nc1nnc(C)n1N)C(C#N)c1ccccc1` (stereo unspecified) and `COc1ccc(C)cc1C1CCC(=O)O1` (stereo unspecified) cannot be ordered by TGI: over 100 µM for the first, over 100 µM for the second.

In the case of `Cc1ccc2nc(NC(=O)C(=O)CC(=O)c3cccc4ccccc34)sc2c1`, the TGI is reported as over 100 µM.

H-QIYKKYRTWYRKAWKVLGKV-NH2 and `COc1cc(/C=N/NC(=O)c2ccccc2Nc2cccc(C(F)(F)F)c2)cc(OC)c1OC` are within 1.5-fold of each other in GI50: 3.24 µM for the first, 2.3 µM for the second.

Compared with `CC(=O)[C-](C(C)=O)c1ccccc1.CC(=O)[C-](C(C)=O)c1ccccc1.CC(=O)[C-](C(C)=O)c1ccccc1.[Cl-].[Zr+4]`, `CN=C(N)N/N=C(\C)c1ccc2c(c1)Cc1ccccc1-2` is lower in GI50: over 100 µM for the first, 0.556 µM for the second.

With `COc1cc2c(cc1OCCCOc1ccc(-c3nc4ccc(N5CCN(C)CC5)cc4[nH]3)cc1)N=C[C@@H]1CCCN1C2=O` the GI50 was under 0.01 µM.
